Assay results: patent publication US8871772B2, “Therapeutic methods and compounds” (Ampio Pharmaceuticals, Inc., priority 2008, dated 2014)

Legend:
Assay type in all cases: cell-based
Akt = Akt phosphorylation in WM-266-4 melanoma cells, CASE ELISA (S473); conditions: IGF-1 stimulated; for inhibition at 50 µM: WM 266-4, WM-266-4, 50 μM
Protocol: Assays were performed to determine the effect of Cpd. 5 (synthesis described in Example 1) on phosphorylation of Akt in WM-266-4, a metastatic melanoma cell line obtained from ATCC. The WM-266-4 cells were grown in 25 cm^2 flasks using IMDM medium (obtained from Lonza) supplemented with 10% fetal bovine serum (FBS, HyClone) and 1% penicillin/streptomycin solution (Lonza). Cells were removed from the flasks using trypsin/EDTA (Lonza) and counted using trypan blue to establish cell counts. Cells in the above supplemented IMDM medium were added to the wells of a 96-well plate (10,000 cells/well), and the plates were incubated at 37° C., 5% CO2, for 24 hours. After 24 hours, the medium was removed and replaced with medium not containing any serum (serum-free IMDM), and the plates were incubated at 37° C., 5% CO2, for an additional 24 hours.
After this incubation, the test compounds were added to the plates as follows. A 20 mM stock solution of Cpd. 5 was prepared in DMSO and frozen at −80° C. Aliquots of the stock solution were removed and dilutions were made in serum-free IMDM medium. Final concentrations of Cpd. 5 were 10 μM and 50 μM. Controls containing equivalent amounts of DMSO as the two concentrations of Cpd. 5 (0.05% and 0.25%) were mixed for comparative purposes. The other control was the PI3 kinase inhibitor, LY294002 (obtained from Sigma), final concentration of 50 μM. 100 μl of each test compound solution were then added to 96 well culture plates in duplicate, and the plates were placed back into the incubator and incubated at 37° C., 5% CO2, for 1 hour.
Following this incubation, 100 μl of serum-free IMDM containing either 0 or 400 ng/ml IGF-1 (obtained from Sigma), an Akt phosphorylation promoter, were added, and the plates incubated at 37° C., 5% CO2, for 1 more hour. At the end of this time, the cells were fixed immediately with 4% formaldehyde, refrigerated, and the extent of phosphorylation of Akt determined using the Akt Cellular Activation of Signaling ELISA (CASE™ Kit for AKT S473; SABiosciences, Frederick, Md.) following the manufacturer's protocols. The CASE™ Kit for AKT S473 quantifies the amount of activated (phosphorylated) Akt protein relative to total Akt protein. For further details of the CASE ELISA assay, see Example 6.
The results were calculated as follows. The treatment groups containing IGF-I/DMSO were subtracted from their respective IGF-1/DMSO only groups (positive control). This value was divided by the difference between the respective DMSO only group (negative control) and the respective positive control. This value represents the percent inhibition of Akt phosphorylation attributable to the inhibitor alone since the contribution of DMSO is subtracted out.

WM-266-4 cells = test: Proliferation of WM-266-4 cells (separate experiment); conditions: concentration not given
Excerpt: As shown there, Cpd. […] It should also be noted that, in a separate experiment, Cpd.

STTG cells = test: Cytotoxicity on confluent STTG monolayers, cell titer assay
Protocol: To determine whether the decrease in cell titer signal caused by Cpd. 5 was due to the inhibition of proliferation or to cytotoxicity, STTG and AU565 cells were seeded at 10,000 cells/well in 96-well plates and grown until a confluent monolayer was obtained. Under these conditions, the cells should no longer proliferate. The culture medium was IMDM supplemented with 10% FBS. After the cells reached confluence, the culture medium was removed by aspiration and replaced with fresh medium containing the test compounds (see Table 2 below). The cell cultures were incubated for an additional 24 hours in the presence of the added compounds and then the cell titer signal was assayed by adding 20 μl Promega cell titer aqueous one reagent to each well. The plates were incubated at 37° C. for an additional 2 hours to allow the colorimetric assay to develop, and the OD of each well was determined in a microplate reader using a 530 nm filter. The OD of wells containing cell titer reagent in culture medium with no cells was subtracted from the OD of all experimental readings.
The % decrease of the total cell titer signal was determined using the following formula. ((Diluent OD−Experimental OD)/Diluent OD))×100. Data are presented in Table 2 as mean % decrease of cell titer signal of three separate experiments, plus or minus standard deviation. In the mean % decrease column, a positive number means a decrease in cell titer signal, while a negative number means an increase. The p values were calculated versus diluent controls.
This experiment was repeated, except using incubations of 18 hours, instead of 24 hours, in the presence of the compounds and 4 hours, instead of 2 hours, for color development.

Structure (SMILES) | inhibition at 10 µM (Akt; Homo sapiens, WM 266-4, WM-266-4, 10 μM) | inhibition at 50 µM (Akt; Homo sapiens) | MEAN % INHIBITION OF Akt PHOSPHORYLATION (Akt; WM-266-4, 50 μM, 50 µM) | inhibition of the proliferation of WM-266-4 cells (WM-266-4 cells) | MEAN % DECREASE of cell titer signal (STTG cells; 10 μM, 18 hours) | MEAN % DECREASE of cell titer signal (STTG cells; 10 μM, 24 hours) | MEAN % DECREASE of cell titer signal (STTG cells; 50 μM, 18 hours) | MEAN % DECREASE of cell titer signal (STTG cells; 50 μM, 24 hours) | MEAN % DECREASE of cell titer signal (STTG cells; 100 μM, 18 hours) | MEAN % DECREASE of cell titer signal (STTG cells; 100 μM, 24 hours)
COC(=O)C(c1ccc(-c2ccccc2)cc1)C1NC(=O)CNC1=O (centres unmarked) [Cpd. 5, biphenyl-4-yl-(3,6-dioxo-piperazin-2-yl)-acetic acid methyl ester] | 102% | 47% | 55.9% | did not inhibit | 0.81% | −7.13% | 21.25% | −1.76% | 18.96% | −10.79%
O=c1cc(N2CCOCC2)oc2c(-c3ccccc3)cccc12 [LY294002, reference compound] |  | 23.1% |  | 105% |  |  | 26.27% | 26.12% |  | 
